Laboratory results taken from ChEMBL document CHEMBL2203048, “Synthesis and biological evaluation of a water-soluble derivative of the potent V-ATPase inhibitor archazolid” (Bioorg Med Chem Lett, 2012).
Activity calls are given as the source filed them. No cut-off for these calls is given here.

Columns and labels:
[1] = molecular target: V-type proton ATPase subunit C (Manduca sexta) (UniProt Q9U5N1); experiment: Binding affinity to tobacco hornworm V-ATPase c subunit in 4:4:1 CDCl3:MeOH-d4:D2O by NMR analysis
V-type proton ATPase subunit C (Manduca sexta), sequence (Q9U5N1 whole entry): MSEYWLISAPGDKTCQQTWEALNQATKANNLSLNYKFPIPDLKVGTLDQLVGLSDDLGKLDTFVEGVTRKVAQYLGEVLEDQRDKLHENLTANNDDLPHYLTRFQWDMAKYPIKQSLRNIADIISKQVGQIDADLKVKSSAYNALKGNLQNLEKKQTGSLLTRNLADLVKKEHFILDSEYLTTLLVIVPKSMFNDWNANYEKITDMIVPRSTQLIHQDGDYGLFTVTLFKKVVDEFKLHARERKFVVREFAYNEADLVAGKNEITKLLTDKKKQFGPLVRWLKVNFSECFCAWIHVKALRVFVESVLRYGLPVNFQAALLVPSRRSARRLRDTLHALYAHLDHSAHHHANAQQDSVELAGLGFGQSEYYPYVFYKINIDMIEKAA

[2] = Solubility of the compound in 5:95 EtOH-d6:D2O solution at 0.5 mM by NMR analysis; format: physicochemical; conditions: 500 µM
[3] = Solubility of the compound in 40:40:1 CDCl3:MeOH-d4:D2O at 1 mM by NMR analysis; format: physicochemical; conditions: 1000 µM
[4] = Solubility of the compound in 5:95 MeOH-d4:D2O solution at 0.5 mM by NMR analysis; format: physicochemical; conditions: 500 µM
[5] = Solubility of the compound in 42:9:49 EtOH-d6:CNCD3:D2O solution at <0.5 mM by NMR analysis; format: physicochemical
[6] = Solubility in 0.4 mM OG at 0.5 mM by NMR analysis; format: physicochemical; conditions: 500 µM
[7] = Solubility of the compound in 10:90 MeOH-d4:D2O solution at 0.5 mM by NMR analysis; format: physicochemical; conditions: 500 µM
[8] = Solubility of the compound in 50:50 DMSO-d6:D2O solution at 1 mM by NMR analysis; format: physicochemical; conditions: 1000 µM
[9] = Solubility of the compound in 5:95 CNCD3-d6:D2O solution at 1 mM by NMR analysis; format: physicochemical; conditions: 1000 µM
[10] = Solubility in 17 mM DHPC at 1 mM by NMR analysis; format: physicochemical; conditions: 1000 µM
[11] = Solubility in 4 mM LDAO at 1 mM by NMR analysis; format: physicochemical; conditions: 1000 µM
[12] = Solubility of the compound in 10:90 DMSO-d6:D2O solution at 0.5 mM by NMR analysis; format: physicochemical; conditions: 500 µM
[13] = Solubility in 3 mM DPC at 0.5 mM by NMR analysis; format: physicochemical; conditions: 500 µM
[14] = Solubility in 2 mM LMPC at 0.5 mM by NMR analysis; format: physicochemical; conditions: 500 µM
[15] = Solubility of the compound in 5:95 EtOH-d6:D2O solution at 1 mM by NMR analysis; format: physicochemical; conditions: 1000 µM
[16] = Solubility in 50 mM OG at 0.5 mM by NMR analysis; format: physicochemical; conditions: 500 µM
[17] = molecular target: V-type proton ATPase subunit C (Manduca sexta) (UniProt Q9U5N1); experiment: Inhibition of tobacco hornworm V-ATPase c subunit

SMILES	Activity [1]	solubility [2]	solubility [3]	solubility [4]	solubility [5]	solubility [6]	solubility [7]	solubility [8]	solubility [9]	solubility [10]	solubility [11]	solubility [12]	solubility [13]	solubility [14]	solubility [15]	solubility [16]	inhibition [17]
CNC(=O)O[C@@H](CC(C)C)c1nc([C@H]2OC(=O)/C(C)=C/C/C(C)=C/[C@@H](O[C@@H]3O[C@H](CO)[C@@H](O)[C@H](O)[C@H]3O)[C@@H](C)\C=C(C)/C=C(C)\C=C\[C@@H](O)[C@H](C)[C@H](OC)/C(C)=C/C=C/[C@@H]2C)cs1	inactive	–	–	–	–	–	–	–	–	–	–	–	–	–	–	–	–
CNC(=O)O[C@@H](CC(C)C)c1nc([C@H]2OC(=O)/C(C)=C/C/C(C)=C/[C@@H](O)[C@@H](C)\C=C(C)/C=C(C)\C=C\[C@@H](O)[C@H](C)[C@H](OC)/C(C)=C/C=C/[C@@H]2C)cs1 [ARCHAZOLID A]	inactive	Insoluble	soluble	Insoluble	Insoluble	Insoluble	Insoluble	Insoluble	Insoluble	Insoluble	Insoluble	Insoluble	Insoluble	Insoluble	Insoluble	Insoluble	–
C=CCOP(=O)(O)CC(=O)O[C@@H]1/C=C/C(C)=C\C(C)=C/[C@H](C)[C@H](OC(=O)CP(=O)(O)OCC=C)/C=C(\C)C/C=C/C(=O)O[C@H](c2csc([C@H](CC(C)C)OC(=O)NC)n2)[C@@H](C)/C=C/C=C(\C)[C@@H](OC)[C@H]1C	–	–	–	–	–	–	–	–	–	–	–	–	–	–	–	–	inactive
